Data taken from EP4752152A1, “STEROID COMPOUND, AND PREPARATION METHOD THEREFOR AND USE THEREOF” (Cholesgen (Shanghai) Co.Ltd., priority 2023, dated 2025).
Like-named read-outs stand apart in the source and are kept apart here.

Assays:
SREBP pathway = assay: SREBP luciferase reporter gene system (SRE-luciferase assay); assay type: cell-based, human; conditions: Huh-7/SRE-luc cells, sterol-deficient medium, 0.01-10 µM
In short: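 Huh-7 cells stably carrying LDLR promoter-luciferase plus GFP were treated 16 h in sterol-deficient medium (5% lipoprotein-deficient serum, 2 µM lovastatin, 10 µM mevalonic acid) at 0.01–10 µM. Luciferase/GFP ratio measured as pathway activity; inhibition versus DMSO fitted to a four-parameter model for IC50.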

[1] = system: Fatty Acid Synthase (FASN) gene; assay: Inhibition of FASN gene expression (qPCR) in Huh-7 cells; assay type: cell-based, human; conditions: read-out: FASN IC50
Protocol: Huh-7 cells (purchased from ATCC) were cultured in DMEM medium (containing 10% fetal bovine serum LONSERA S711-001S) at 37°C in a 5% CO2 incubator. After 24 hours, the original medium was aspirated and replaced with DMEM starvation medium (containing 5% lipoprotein deficient serum (LPDS), 2 µM lovastatin, and 10 µM mevalonate). The control group was treated with dimethyl sulfoxide (DMSO), while the compound treatment groups were treated with different concentrations of compounds. The highest concentration of the compound was 3000 nM, with 3-fold dilutions, totaling 5 concentrations. The cells were cultured for 16 hours. Cell lysis was performed, followed by reverse transcription from cells to cDNA, and qPCR was performed to detect the expression of the SREBP target gene Fatty Acid Synthase (FASN) gene (FASN gene forward primer sequence: 5'-[…]-3', reverse primer sequence: 5'-[…]-3'). The IC50 was calculated. The test data for each test compound were analyzed using Prism software (with the DMSO-treated group as the reference to calculate the compound inhibition rate, fitted using the Prism log(inhibitor) vs. responseVariable slope (four-parameter) model, calculation formula: Y = Bottom + (Top - Bottom)/(1 + 10^((LogIC50 - X) × HillSlope))), to obtain the IC50 parameters of the compounds. Table 4: Inhibition results of FASN gene expression by compounds from some examples

[2] = Homo sapiens, Huh-7, 16 h, Huh-7 cells, starvation medium, 16 hours, qPCR, class symbols

| SMILES | IC50 (SREBP pathway; Homo sapiens, Huh-7, 16 h) [µM] | IC50 [1, 2] [nM] | IC50 (SREBP pathway; 16 hours) [µM] | IC50 ([1]; Huh-7 cells, starvation medium, 16 hours, qPCR, class symbols) [nM] | IC50 ([1]; Homo sapiens, Huh-7, 16 h) [nM] |
| --- | --- | --- | --- | --- | --- |
| C[C@H](CCCC(O)c1nc2cccc(Br)c2n1C)[C@H]1CC[C@H]2[C@H]3[C@H](CC[C@]12C)[C@@]1(C)CC[C@H](O)[C@H](O)[C@@H]1CC3(F)F (stereo partly drawn) [Compound 212, (1R,3aS,3bS,5aR,6R,7 S,9aR,9bS,11aR)-1-[(2R)-6-(7-Bromo-1-methylbenzo[d]imidazol-2-yl)-6-hydroxyhexan-2-yl]-4,4-difluoro-9a,11a-dimethylhexadecahydro-1H-cyclopenta[1,2-a]phenanthrene-6,7-diol] | 0.08 | 200 to 500 |  |  |  |
| C[C@H](CCC[C@H](O)c1c(F)ccnc1F)[C@H]1CC[C@H]2[C@H]3[C@H](CC[C@]12C)[C@@]1(C)CC[C@H](O)[C@H](O)[C@@H]1CC3(F)F (single isomer, unassigned) [Compound 233] | 0.106 | 200 to 500 |  |  |  |
| COc1ccnc(OC)c1C(O)CCC[C@@H](C)[C@H]1CC[C@H]2[C@H]3[C@H](CC[C@]12C)[C@@]1(C)CC[C@H](O)[C@H](O)[C@@H]1CC3(F)F (single isomer, unassigned) [Compound 171, (1R,3aS,3bS,5aR,6R,7S,9aR,9bS,11aR)-1-[(2R,6S)-6-(2,4-dimethoxypyridin-3-yl)-6-hydroxyhexan-2-yl]-4,4-difluoro-9a,11a-dimethylhexadecahydro-1H-cyclopenta[1,2-a]phenanthrene-6,7-diol or (1R,3aS,3bS,5aR,6R,7S,9aR,9bS,11aR)-1-[(2R,6R)-6-(2,4-dimethoxypyridin-3-yl)-6-hydroxyhexan-2-yl]-4,4-difluoro-9a,11a-dimethylhexadecahydro-1H-cyclopenta[1,2-a]phenanthrene-6,7-diol] |  | < 200 | 0.013 |  |  |
| C[C@H](CCCC(O)c1ccc2c(n1)OC(F)(F)O2)[C@H]1CC[C@H]2[C@H]3[C@H](CC[C@]12C)[C@@]1(C)CC[C@H](O)[C@H](O)[C@@H]1CC3(F)F (single isomer, unassigned) [Compound 266] |  |  | 0.099 | < 200 |  |
| C[C@H](CCCC(O)c1c(F)cc(F)cc1F)[C@H]1CC[C@H]2[C@H]3[C@H](CC[C@]12C)[C@@]1(C)CC[C@H](O)[C@H](O)[C@@H]1CC3(F)F (stereo partly drawn) [Compound 69, (1R,3aS,3bS,5aR,6R,7S,9aR,9bS,11aR)-4,4-difluoro-1-[(2R)-6-hydroxy-6-(2,4,6-trifluorophenyl)hexan-2-yl]-9a,11a-dimethylhexadecahydro-1H-cyclopenta[1,2-a]phenanthrene-6,7-diol] | 0.086 | < 200 |  |  |  |
| COc1cccc(F)c1C(CCC[C@@H](C)[C@H]1CC[C@H]2[C@H]3[C@H](CC[C@]12C)[C@@]1(C)CC[C@H](O)[C@H](O)[C@@H]1CC3(F)F)=NO (single isomer, unassigned) [Compound 210, [(1E,5R)-5-[(1R,3aS,3bS,5aR,6R,7S,9aR,9bS,11aR)-4,4-difluoro-6,7-dihydroxy-9a,11a-dimethylhexadecahydro-1H-cyclopenta[1,2-a]phenanthren-1-yl]-1-(2-fluoro-6-methoxyphenyl)hexylidene]hydroxylamine or [(1Z,5R)-5-[(1R,3aS,3bS,5aR,6R,7S,9aS,9bS,11aR)-4,4-difluoro-6,7-dihydroxy-9a,9b,11a-trimethylhexadecahydro-1H-cyclopenta[1,2-a]phenanthren-1-yl]-1-(2-fluoro-6-methoxyphenyl)hexylidene]hydroxylamine] |  |  | 0.017 |  | < 200 |
| C[C@H](CCC(=O)N(C)c1ccccc1F)[C@H]1CC[C@H]2[C@H]3[C@H](CC[C@]12C)[C@@]1(C)CC[C@H](O)[C@H](O)[C@@H]1CC3(F)F [Compound 95, (4R)-4-[(1R,3aS,3bS,5aR,6R,7S,9aR,9bS,11aR)-4,4-difluoro-6,7-dihydroxy-9a,11a-dimethylhexadecahydro-1H-cyclopenta[1,2-a]phenanthren-1-yl]-N-(2-fluorophenyl)-N-methylpentanamide] | 0.08 | < 200 |  |  |  |
| C[C@H](CCCC(O)c1cccc2ncn(C)c12)[C@H]1CC[C@H]2[C@H]3[C@H](CC[C@]12C)[C@@]1(C)CC[C@H](O)[C@H](O)[C@@H]1CC3(F)F (stereo partly drawn) [Compound 261, (1R,3aS,3bS,5aR,6R,7 S,9aR,9bS,11aR)-4,4-Difluoro-1-[(2R)-6-hydroxy-6-(3-methylbenzo[d]imidazol-4-yl)hexan-2-yl]-9a,11a-dimethylhexadecahyd ro-1H-cyclopenta[1,2-a]phenanthrene-6,7-diol] | 0.001 | < 200 |  |  |  |
| C[C@H](CCCC(O)c1ccc(F)cc1F)[C@H]1CC[C@H]2[C@H]3[C@H](CC[C@]12C)[C@@]1(C)CC[C@H](O)[C@H](O)[C@@H]1CC3(F)F (stereo partly drawn) [Compound 102, (1R,3aS,3bS,5aR,6R,7S,9aR,9bS,11aR)-1-[(2R)-6-(2,4-difluorophenyl)-6-hydroxyhexan-2-yl]-4,4-difluoro-9a,11a-dimethylhexadecahydro-1H-cyclopenta[1,2-a]phenanthrene-6,7-diol] | 0.14 | < 200 |  |  |  |
| C[C@H](CCCC(O)c1nc2ccccc2[nH]1)[C@H]1CC[C@H]2[C@H]3[C@H](CC[C@]12C)[C@@]1(C)CC[C@H](O)[C@H](O)[C@@H]1CC3(F)F (stereo partly drawn) [Compound 303, (1R,3aS,3bS,5aR,6R,7 S,9aR,9bS,11aR)-4,4-Difluoro-1-[(2R)-6-hydroxy-6-(1H-benzo[d]imidazol-2-yl)hexan-2-yl]-9a,11a-dimethylhexadecahydro-1H-cyclopenta[1,2-a]phenanthrene-6,7-diol] | 0.109 | < 200 |  |  |  |
| COc1ncccc1C(O)CCC[C@@H](C)[C@H]1CC[C@H]2C3=C(F)C[C@H]4[C@@H](O)[C@@H](O)CC[C@]4(C)[C@H]3CC[C@]12C (some centres unmarked) [Compound 83] | 0.092 | 200 to 500 |  |  |  |
| C[C@H](CCC[C@@H](O)c1ccccn1)[C@H]1CC[C@H]2[C@H]3[C@H](CC[C@]12C)[C@@]1(C)CC[C@H](O)[C@H](O)[C@@H]1CC3(F)F [Compound 92, (1R,3aS,3bS,5aR,6R,7S,9aR,9bS,11aR)-4,4-difluoro-1-[(2R,6R)-6-hydroxy-6-(pyridin-2-yl)hexan-2-yl]-9a,11a-dimethylhexadecahydro-1H-cyclopenta[1,2-a]phenanthrene-6,7-diol] | 0.371 | < 200 |  |  |  |
| COc1cccc(F)c1C(O)CCC[C@@H](C)[C@H]1CC[C@H]2[C@H]3[C@H](CC[C@]12C)[C@@]1(C)CC[C@H](O)C[C@@H]1CC3(F)F (single isomer, unassigned) [Compound 314] | 0.14 | 500 to 900 |  |  |  |
| COc1cccc(F)c1[C@H](O)CC[C@@H](C)[C@H]1CC[C@H]2[C@H]3[C@H](CC[C@]12C)[C@@]1(C)CC[C@H](O)[C@H](O)[C@@H]1CC3(F)F [Compound 346, (1R,3aS,3bS,5aR,6R,7S,9aR,9bS,11aR)-4,4-difluoro-1-[(2R,5R)-5-(2-fluoro-6-methoxyphenyl)-5-hydroxypentan-2-yl]-9a,11a-dimethylhexadecahydro-1H-cyclopenta[1,2-a]phenanthrene-6,7-diol] | 0.056 | < 200 |  |  |  |
| COc1cccc(F)c1C(O)CCC[C@@H](C)[C@H]1CC[C@H]2[C@H]3[C@H](CC[C@]12C)[C@@]1(C)CC[C@H](O)C[C@@H]1CC3(F)F (stereo partly drawn) [Compound 302, (1R,3aS,3bR,5aR,7S,9aS,9bS,11aR)-4,4-difluoro-1-[(2R)-6-(2-fluoro-6-methoxyphenyl)-6-hydroxyhexan-2-yl]-9a,11a-dimethylhexadecahydro-1H-cyclopenta[1,2-a]phenanthren-7-ol] | 0.085 | < 200 |  |  |  |
| COc1nc(F)ccc1C(O)CCC[C@@H](C)[C@H]1CC[C@H]2[C@H]3[C@H](CC[C@]12C)[C@@]1(C)CC[C@H](O)C[C@@H]1CC3(F)F (stereo partly drawn) [Compound 301, (1R,3aS,3bR,5aR,7S,9aS,9bS,11aR)-4,4-difluoro-1-[(2R)-6-(6-fluoro-2-methoxypyridin-3-yl)-6-hydroxyhexan-2-yl]-9a,11a-dimethylhexadecahydro-1H-cyclopenta[1,2-a]phenanthren-7-ol] | 0.076 | 200 to 500 |  |  |  |
| COc1cccc(F)c1C(O)CC[C@@H](C)[C@H]1CC[C@H]2[C@H]3[C@H](CC[C@]12C)[C@@]1(C)CC[C@H](O)[C@H](O)[C@@H]1CC3(F)F (single isomer, unassigned) [Compound 336] | 0.31 | < 200 |  |  |  |
| COc1nc(F)cc(F)c1[C@@H](O)CCC[C@@H](C)[C@H]1CC[C@H]2[C@H]3[C@H](CC[C@]12C)[C@@]1(C)CC[C@H](O)[C@H](O)[C@@H]1CC3(F)F (single isomer, unassigned) [Compound 255] | 0.107 | 200 to 500 |  |  |  |
| COc1nc(F)ccc1[C@H](O)CCC[C@@H](C)[C@H]1CC[C@H]2[C@H]3[C@H](CC[C@]12C)[C@@]1(C)CC[C@H](O)C[C@@H]1CC3(F)F [Compound 313, (1R,3aS,3bR,5aR,7S,9aS,9bS,11aR)-4,4-difluoro-1-[(2R,6R)-6-(6-fluoro-2-methoxypyridin-3-yl)-6-hydroxyhexan-2-yl]-9a,11a-dimethylhexadecahydro-1H-cyclopenta[1,2-a]phenanthren-7-ol] | 0.076 | 500 to 900 |  |  |  |
